{"source": "patent US11667645B2", "about": "“Granzyme B directed imaging and therapy” (CytoSite Biopharma Inc., priority 2018, dated 2023)", "key": {"[1]": {"assay": "metabolic stability assay using liver microsomes", "assay_type": "in vitro ADME", "conditions": "human liver microsomes, with NRS at 37° C.", "experimental": "In addition, compounds of Formula I-VIII described above are also tested in the metabolic stability assay using liver microsomes, as provided below.\nBuffer pH7.4: Prepare 1 (M) KH2PO4 and 1 (M) K2HPO4. Titrate 1(M) K2HPO4 with 1 (M) KH2PO4 to obtain pH 7.40. Dilute this buffer 10 fold in Water (30 ml buffer+270 ml of water) to obtain 100 mM phosphate buffer. Adjust pH to 7.40±0.02 using 5(N) HCl or 5(N) NaOH.\nNADPH Regeneration System (NRS): Prepare a solution containing 13 mM NADP, 33 mM Glucose-6-phosphate, 33 mM MgCl2 and 4 U/ml Glucose-6-phosphate dehydrogenase in buffer.\nLiver Microsome (LM) suspension: Thaw LM vial on ice, then mix 1.0 ml LM (20 mg/ml) with 19 ml buffer [final LM Conc: 1 mg/ml]\nLM+NRS suspension: Mix 5.0 ml NRS with 20 ml LM suspension [final LM Conc: 0.8 mg/ml]\nSystem suitability standard: a synthesized compound having Mol wt 686.2 used as System suitability standard. Dissolve this compound in ice-cold acetonitrile to obtain concentration of 0.1 μg/ml and store at 4° C.\nCompound Stock: 10 mM in DMSO\nSub stock (100 μM): 4 μl of 10 mM Compound Stock+[…] Acetonitrile\nWorking plate (2 μM): 10 μl of 100 μM Sub stock+490 μl buffer\nIncubate all plastic materials including tips at 37° C. overnight.\nIncubate LM suspension and NRS at 37° C. for 15 min before use.\nAdd 40 μl buffer to the wells of blank plate.\nAdd 40 μl compound (from working plate) to 0, 5, 10, 20, 30 and 60 min plates.\nInitiate reaction by adding 40 μl of LM+NRS suspension in each plate.\nTerminate reaction by adding 240 μl ice-cold acetonitrile containing system suitability standard at designated time points. For T=0 add 240 μl ice-cold acetonitrile containing system suitability standard before LM+NRS addition.\nCentrifuge (3500 rpm, 20 min and 15° C.) the plates.\nMix 110 μl supernatant with 110 μl water and quantitate amount of Compound in the solution using LC-MS/MS.\nFor Scaled CLint & Predicted CL use the relevant physiological parameters, as applicable.\nHuman LM: Corning, Cat #25117\nMouse LM: Xenotech, Cat #M1000\n(2) Volumes mentioned in the protocol are representative values and may change depending on number of test compounds.\n(3) It is assumed that the compounds are chemically stable in the assay system/buffer.\nThe metabolic stability assay described above can be performed using different test concentrations, LM Concentrations, or time points.\nCertain compounds of this disclosure were tested in the microsomal stability assay provided above."}, "[2]": {"molecular_target": "Granzyme B (human lymphocytes) (Homo sapiens (Human), UniProt P10144)", "sequence (P10144 21-247)": "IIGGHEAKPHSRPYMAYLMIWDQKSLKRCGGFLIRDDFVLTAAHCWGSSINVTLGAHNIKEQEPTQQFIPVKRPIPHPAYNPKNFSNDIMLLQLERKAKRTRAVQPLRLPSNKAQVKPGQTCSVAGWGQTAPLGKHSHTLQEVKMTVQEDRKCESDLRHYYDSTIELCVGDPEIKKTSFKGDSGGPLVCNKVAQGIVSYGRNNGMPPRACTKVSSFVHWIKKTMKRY", "assay": "human Granzyme B biochemical assay", "conditions": "read-out: IC50", "summary_of_the_method": "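Enzyme (10 nM working stock, assay buffer with 0.1% BSA) pre-incubated with compound for 30 min at 22 °C, then Ac-IETD-AFC (800 µM working stock) added for 60 min at 22 °C in the dark. Fluorescence read at Ex 400/Em 505 nm; 8-point 3.16-fold series (40 µM top working stock); IC50 from % inhibition versus standard-inhibitor and DMSO controls.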"}}, "note": "Like-named read-outs stand apart in the source and are kept apart here.", "data": [{"smiles": "CC[C@H](C)[C@H](NC(=O)c1ccnc(F)c1)C(=O)N[C@H]1CCc2cccc3c2N(C1=O)[C@H](C(=O)NCc1c[nH]nn1)C3", "note": "[Compound C141, (2S,5S)-5-{(2S,3S)-2-[(2-Fluoro-pyridine-4-carbonyl)-amino]-3-methyl-pentanoylamino}4-oxo-1,2,4,5,6,7-hexahydro-azepino[3,2,1-hi]indole-2-carboxylic acid (1H-[1,2,3]triazol-4-ylmethyl)-amide]", "values": [{"measurement": "HLM % remaining @ 30 min", "setting": "[1]", "value": "*** (the symbol “***” indicates a remaining percentage of 71-100%)"}, {"measurement": "IC50", "setting": "[2]; Granzyme B (human lymphocytes) 5 nM, substrate Ac-IETD-AFC 200 μM, Cpd incubation with enzyme 30 mins, 22° C., read time 60 mins", "value": "1 to 300", "unit": "nM"}, {"measurement": "IC50", "setting": "[2]; Granzyme B IC50 as repeated in Table 7", "value": "1 to 300", "unit": "nM"}]}]}
